Reference: patent US9821002B2, “Method for alleviating radiation injury with isorhamnetin-3-O-β-D-glucoside” (Sinotai Oncology Associate., Ltd., priority 2015, dated 2017)

Tests used:
BNL CL.2 cells = test: Apoptosis assay (FITC Annexin V/PI) after X-ray irradiation; assay type: cell-based, mouse; details: 2 h pretreatment, X-ray 15 Gy, 96 hours, mean ± SEM
Source text: (§1) Four groups of BNL CL.2 cells (i.e., a normal control group referred to as Normal Control Group 1-A, an X-ray control group referred to as X-Ray Control Group 1-A, and two experimental groups referred to as Experimental Groups 1-A to 2-A), and six groups of NMuMG cells (i.e., a normal control group referred to as Normal Control Group 1-B, an X-ray control group referred to as X-Ray Control Group 1-B, two isorhamnetin groups referred to as Isorhamnetin Groups 1 to 2, and two experimental groups referred to as Experimental Groups 1-B to 2-B), were prepared based on the procedure set forth in “Source and cultivation of cell lines” of “Experimental materials”. BNL CL.2 cells in each group were cultivated using 5 mL of a corresponding medium shown in Table 1 and a 6-cm Petri dish in an amount of 2×10^5 cells per dish. Likewise, NMuMG cells in each group were cultivated using 5 mL of a corresponding medium shown in Table 1 and a 6-cm Petri dish in an amount of 2.5×10^5 cells per dish. The cultivation was conducted in an incubator (37° C., 5% CO2) for 24 hours.
(§2) Subsequently, medium was replaced with fresh medium. The obtained cultures in Experimental Groups 1-A, 1-B, 2-A, and 2-B were pretreated with the stock solution of isorhamnetin-3-O-β-D-glucoside, and the obtained cultures in Isorhamnetin Groups 1 to 2 were pretreated with the stock solution of isorhamnetin.
(§3) The culture in each group was then cultivated in an incubator (37° C., 5% CO2) for two hours. The resultant culture was used for the following experiments in sections B to D.
(§4) The cultures in X-Ray Control Group 1-A, X-Ray Control Group 1-B, Isorhamnetin Group 1, Isorhamnetin Group 2, Experimental Group 1-A, Experimental Group 1-B, Experimental Group 2-A, and Experimental Group 2-B, prepared according to section A of “Experimental procedures” in this example, were subjected to X-ray irradiation using a linear accelerator at a dose of 15 Gy. The cultures in Normal Control Groups 1-A and 1-B received no X-ray irradiation treatment. The culture of BNL CL.2 cells in each group was cultivated using a 6-cm Petri dish in an incubator (37° C., 5% CO2) for 96 hours, and the culture of NMuMG cells in each group was cultivated using a 6-cm Petri dish in an incubator (37° C., 5% CO2) for 72 hours. 1 mL of trypsin-EDTA was added to the culture in each group so as to detach the cells from the bottom of the Petri dish. Following this, 1 mL of a fresh medium (corresponding to the medium described in Table 1) was added to neutralize the activity of the trypsin, and the resultant cell suspension was transferred to a centrifuge tube with a pipette, followed by centrifugation at 1200 rpm for three minutes. The supernatant was removed, and the cell pellet thus obtained was washed once with cold PBS (pH 7.4), followed by centrifugation at 1200 rpm for 3 minutes. The supernatant was removed, and 100 μL of cold Annexin V binding buffer (BD Pharmingen™) was added to sufficiently re-suspend the cell pellet thereby obtaining a cell suspension having a cell concentration of 1.0×10^6 cells/mL. Afterward, 5 μL of FITC Annexin V (BD Pharmingen™) and 5 μL of propidium iodide (PI) staining solution (BD Pharmingen™) were added to the obtained cell suspension, followed by mixing evenly and standing in the dark at 4° C. for 30 minutes so as to obtain stained cells.
(§5) Subsequently, the stained cells were analyzed using BD Accuri™ C6 flow cytometry, in which cells that could be stained with FITC Annexin V but not with PI (i.e., FITC Annexin V positive and PI negative) represented cells that were induced with early apoptosis; cells stained with both FITC Annexin V and PI (i.e., FITC Annexin V positive and PI positive) represented cells that were induced with late apoptosis; and cells that could not be stained with FITC Annexin V and PI (i.e., FITC Annexin V negative and PI negative) represented viable cells. The number of stained cells was calculated using BD Accuri™ C6 software. […]

NMuMG cells = test: as above; assay type: cell-based, mouse; details: 2 h pretreatment, X-ray 15 Gy, 72 hours, mean ± SEM
Source text: as §1, §2, §3, §4, §5

SMILES: COc1cc(-c2oc3cc(O)cc(O)c3c(=O)c2O[C@@H]2O[C@H](CO)[C@@H](O)[C@H](O)[C@H]2O)ccc1O [isorhamnetin-3-O-β-D-glucoside]
- Apoptosis percentage (BNL CL.2 cells; 5 μM): 30.28 ± 3.09%
- Apoptosis percentage (BNL CL.2 cells; 30 μM): 29.35 ± 1.92 %
- Apoptosis percentage (NMuMG cells; 15 μM): 17.77 ± 0.88 %
- Apoptosis percentage (NMuMG cells; 30 μM): 16.5 ± 0.62 %
